Reference: patent US4668685A (priority 1985, dated 1987)
Where a name gives a salt, the structure may show the parent alone.

Experiments:
[1] = Oral nalbuphine bioavailability, monkey; details: 4 mg nalbuphine/kg, % dose, two values, 4 mg/kg
[2] = Oral nalbuphine bioavailability, human
[3] = Oral 3-hydroxymorphinan bioavailability, dog (drug and prodrugs); details: 4 mg/kg
[4] = Oral 3-hydroxymorphinan bioavailability (nalbuphine), rat; details: plasma, 20 mg/kg
[5] = Plasma hydrolysis of nalbuphine prodrug, dog plasma
[6] = Plasma hydrolysis of nalbuphine prodrug, monkey plasma
[7] = Plasma hydrolysis of nalbuphine prodrug, rat plasma
[8] = Plasma hydrolysis of nalbuphine prodrug, human plasma
[9] = Oral 3-hydroxymorphinan bioavailability, species not printed at the place; details: 10 mg naloxone/kg, species not given

Row | Compound | half-life at 0.28 µM [5] [h] | half-life at 0.28 µM [6] [h] | half-life at 0.28 µM [7] [h] | half-life at 0.28 µM [8] [h] | also measured
1 | Oc1ccc2c3c1O[C@H]1[C@@H](O)CC[C@@]4(O)[C@@H](C2)N(CC2CCC2)CC[C@]314 [nalbuphine, (-)-17-(Cyclobutylmethyl)-4,5α-epoxymorphinan-3,6α,14-triol] |  |  |  |  | Oral nalbuphine bioavailability (F) [1]: 1.6%; bioavailability ([1]; plasma, po, Oral nalbuphine bioavailability (F)): 0.9%; Oral nalbuphine bioavailability (F) ([2]; 45 mg tablet or solution, % dose): 14%; bioavailability ([2]; plasma, po, 45 mg): 14%; Oral nalbuphine bioavailability (F) ([3]; oral, 4 mg nalbuphine/kg, % dose, mean ± SE): 5.4 ± 0.9%; bioavailability ([3]; plasma, po): 5.4%; bioavailability [4]: 2.7 ± 0.4%
2 | CC(=O)Oc1ccccc1C(=O)Oc1ccc2c3c1O[C@H]1[C@@H](O)CC[C@@]4(O)[C@@H](C2)N(CC2CCC2)CC[C@]314 [Example 1, Nalbuphine-3-(acetylsalicylate)] | 2.8 | 0.6 | 0.2 | 6.2 | 
3 | C=CCN1CC[C@]23c4c5ccc(O)c4O[C@H]2C(=O)CC[C@@]3(O)[C@H]1C5 [naloxone HCl, (-)-17-Allyl-4,5α-epoxy-3,14-dihydroxymorphinan-6-one] |  |  |  |  | Plasma naloxone concentrations after oral naloxone HCl [9]: close to the assay detection limits and as such were erratic
4 | Nc1ccccc1C(=O)Oc1ccc2c3c1O[C@H]1[C@@H](O)CC[C@@]4(O)[C@@H](C2)N(CC2CCC2)CC[C@]314 [Example 2, Nalbuphine-3-anthranilate hydrochloride] | 14.6 | 3.3 | 1.5 | 45 | 
